Reference: PMC8429728, “TNK1 is a ubiquitin-binding and 14-3-3-regulated kinase that can be targeted to block tumor growth” (Nature Communications, 2021)
Like-named read-outs stand apart in the source and are kept apart here.

What was measured:
Test in all cases: biochemical
Parameters in all cases: Reaction Biology 371-kinase panel at Km ATP, per cent enzyme activity relative to DMSO, single dose in duplicate
SRPK1 = SRPK1 (Homo sapiens, UniProt Q96SB4); details: duplicate measurements, Km ATP
Method: (§1) To assess kinase selectivity, we screened TP-5801 (300 nM) against a panel of 371 kinases in vitro. […] In addition to TNK1, only 7 other kinases were inhibited by more than 90% (Supplementary Fig. 8 and Supplementary Data 2). […] The resulting % Enzyme activity (relative to DMSO controls) were plotted in GraphPad and IC50 values were determined by sigmoidal dose-response (variable slope) curve fits, with a bottom constraint of 0.

HIPK4 = HIPK4 (Homo sapiens, UniProt Q8NE63); details: duplicate measurements, Km ATP
Method: as §1

EGFR = EGFR (Homo sapiens, UniProt P00533); details: duplicate measurements, Km ATP
Method: as §1

CK1epsilon = molecular target: T1, CK1epsilon (Homo sapiens, UniProt P49674); details: duplicate measurements, Km ATP
T1 construct: gene CSNK1E
Method: as §1

BRSK1 = BRSK1 (Homo sapiens, UniProt Q8TDC3); details: duplicate measurements, Km ATP
Method: as §1

MKK6 = molecular target: T2, MKK6 (Homo sapiens, UniProt P52564); details: duplicate measurements, Km ATP
T2 construct: gene MAP2K6
Method: as §1

CDK2/cyclin E2 = CDK2/cyclin E2 (Homo sapiens, UniProt P24941); details: duplicate measurements, Km ATP
Method: as §1

PAK3 = PAK3 (Homo sapiens, UniProt O75914); details: duplicate measurements, Km ATP
Method: as §1

CDK7/cyclin H = CDK7/cyclin H (Homo sapiens, UniProt P50613); details: duplicate measurements, Km ATP
Method: as §1

ALK6/BMPR1B = ALK6/BMPR1B (Homo sapiens, UniProt O00238); details: duplicate measurements, Km ATP
Method: as §1

LYN B = molecular target: T3, LYN B (Homo sapiens, UniProt P07948); details: duplicate measurements, Km ATP
T3 construct: isoform B
Method: as §1

CDK4/cyclin D1 = CDK4/cyclin D1 (Homo sapiens, UniProt P11802); details: duplicate measurements, Km ATP
Method: as §1

ERN1/IRE1 = ERN1/IRE1 (Homo sapiens, UniProt O75460); details: duplicate measurements, Km ATP
Method: as §1

NLK = NLK (Homo sapiens, UniProt Q9UBE8); details: duplicate measurements, Km ATP
Method: as §1

IR = molecular target: T4, IR (Homo sapiens, UniProt P06213); details: duplicate measurements, Km ATP
T4 construct: gene INSR
Method: as §1

PKCiota = molecular target: T5, PKCiota (Homo sapiens, UniProt P41743); details: duplicate measurements, Km ATP
T5 construct: gene PRKCI
Method: as §1

LATS1 = LATS1 (Homo sapiens, UniProt O95835); details: duplicate measurements, Km ATP
Method: as §1

STK39/STLK3 = STK39/STLK3 (Homo sapiens, UniProt Q9UEW8); details: duplicate measurements, Km ATP
Method: as §1

AKT1 = AKT1 (Homo sapiens, UniProt P31749); details: duplicate measurements, Km ATP; read-out: % Enzyme Activity (relative to DMSO controls) / TP-0005801 (0.3µM) / Data 1
Method: as §1

MST4 = molecular target: T6, MST4 (Homo sapiens, UniProt Q9P289); details: duplicate measurements, Km ATP
T6 construct: gene STK26
Method: as §1

[1] = read-out: % Enzyme Activity (relative to DMSO controls) / TP-0005801 (0.3µM) / Data 1
[2] = read-out: % Enzyme Activity (relative to DMSO controls) / TP-0005801 (0.3µM) / Data 2

PAK3, sequence (O75914 whole entry): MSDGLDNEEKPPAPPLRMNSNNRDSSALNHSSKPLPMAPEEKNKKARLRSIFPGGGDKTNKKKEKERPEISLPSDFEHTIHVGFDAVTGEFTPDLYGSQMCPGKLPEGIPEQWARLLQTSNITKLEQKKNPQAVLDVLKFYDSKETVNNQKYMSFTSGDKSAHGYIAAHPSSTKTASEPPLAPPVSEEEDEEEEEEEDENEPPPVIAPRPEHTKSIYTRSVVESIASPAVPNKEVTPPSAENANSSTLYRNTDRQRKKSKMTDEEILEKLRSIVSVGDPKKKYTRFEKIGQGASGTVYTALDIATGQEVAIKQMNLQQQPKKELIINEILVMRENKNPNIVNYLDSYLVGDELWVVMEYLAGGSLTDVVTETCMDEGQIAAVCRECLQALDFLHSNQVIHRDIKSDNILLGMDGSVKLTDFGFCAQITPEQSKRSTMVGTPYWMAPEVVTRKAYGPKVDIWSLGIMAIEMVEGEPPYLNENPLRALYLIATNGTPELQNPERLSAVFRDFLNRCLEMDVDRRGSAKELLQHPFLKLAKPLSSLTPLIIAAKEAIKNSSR
HIPK4, sequence (Q8NE63 whole entry): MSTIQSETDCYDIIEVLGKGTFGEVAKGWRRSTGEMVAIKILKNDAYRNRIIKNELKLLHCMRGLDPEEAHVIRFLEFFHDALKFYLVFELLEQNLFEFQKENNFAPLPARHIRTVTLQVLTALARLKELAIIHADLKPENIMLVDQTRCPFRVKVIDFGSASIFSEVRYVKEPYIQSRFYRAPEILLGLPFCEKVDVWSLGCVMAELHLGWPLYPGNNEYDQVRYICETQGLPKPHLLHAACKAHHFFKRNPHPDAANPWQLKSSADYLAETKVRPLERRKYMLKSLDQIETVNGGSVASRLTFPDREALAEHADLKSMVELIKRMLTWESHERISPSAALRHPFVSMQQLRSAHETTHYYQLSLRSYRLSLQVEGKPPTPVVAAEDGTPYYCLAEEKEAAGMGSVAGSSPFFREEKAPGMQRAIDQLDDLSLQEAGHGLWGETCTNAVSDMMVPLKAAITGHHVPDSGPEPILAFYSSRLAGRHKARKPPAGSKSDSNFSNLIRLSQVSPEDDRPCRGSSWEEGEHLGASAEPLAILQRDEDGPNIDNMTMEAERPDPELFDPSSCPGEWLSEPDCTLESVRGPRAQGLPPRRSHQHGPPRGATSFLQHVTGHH
BRSK1, sequence (Q8TDC3 whole entry): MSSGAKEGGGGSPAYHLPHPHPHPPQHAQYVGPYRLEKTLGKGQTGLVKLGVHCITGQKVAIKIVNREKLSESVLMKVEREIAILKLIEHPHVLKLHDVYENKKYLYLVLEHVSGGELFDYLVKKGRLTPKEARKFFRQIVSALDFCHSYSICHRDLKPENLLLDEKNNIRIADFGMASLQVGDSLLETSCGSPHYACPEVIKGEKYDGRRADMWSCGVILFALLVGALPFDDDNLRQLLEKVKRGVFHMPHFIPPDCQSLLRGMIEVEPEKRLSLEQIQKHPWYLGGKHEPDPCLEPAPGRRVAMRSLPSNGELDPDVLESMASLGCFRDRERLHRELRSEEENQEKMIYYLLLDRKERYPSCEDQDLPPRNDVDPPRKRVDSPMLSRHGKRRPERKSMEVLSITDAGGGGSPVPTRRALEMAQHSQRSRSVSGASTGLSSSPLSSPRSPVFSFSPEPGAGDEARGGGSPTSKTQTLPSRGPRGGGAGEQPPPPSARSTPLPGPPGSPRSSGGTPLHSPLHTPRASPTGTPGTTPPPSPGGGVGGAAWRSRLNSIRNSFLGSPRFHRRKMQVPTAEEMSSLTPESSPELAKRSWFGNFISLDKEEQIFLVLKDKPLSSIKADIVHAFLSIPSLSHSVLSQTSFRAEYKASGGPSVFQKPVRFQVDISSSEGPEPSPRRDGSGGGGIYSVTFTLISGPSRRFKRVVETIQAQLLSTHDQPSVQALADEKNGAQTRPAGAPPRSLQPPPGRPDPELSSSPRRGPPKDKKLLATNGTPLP
NLK, sequence (Q9UBE8 whole entry): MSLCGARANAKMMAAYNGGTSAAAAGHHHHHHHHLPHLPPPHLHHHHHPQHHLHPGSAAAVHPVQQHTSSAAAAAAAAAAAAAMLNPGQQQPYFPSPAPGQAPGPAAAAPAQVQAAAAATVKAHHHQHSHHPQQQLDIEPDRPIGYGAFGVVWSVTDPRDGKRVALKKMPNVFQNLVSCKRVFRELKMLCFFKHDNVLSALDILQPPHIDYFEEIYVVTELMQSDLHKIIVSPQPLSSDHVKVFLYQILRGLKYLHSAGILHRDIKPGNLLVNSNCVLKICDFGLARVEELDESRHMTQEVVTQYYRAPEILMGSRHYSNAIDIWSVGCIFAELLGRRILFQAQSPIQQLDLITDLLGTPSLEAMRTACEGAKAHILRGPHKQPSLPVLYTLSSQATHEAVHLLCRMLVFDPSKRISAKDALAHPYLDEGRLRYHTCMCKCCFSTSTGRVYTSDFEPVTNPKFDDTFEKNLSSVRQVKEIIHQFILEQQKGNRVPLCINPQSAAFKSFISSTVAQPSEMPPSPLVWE
T4 sequence (P06213 whole entry): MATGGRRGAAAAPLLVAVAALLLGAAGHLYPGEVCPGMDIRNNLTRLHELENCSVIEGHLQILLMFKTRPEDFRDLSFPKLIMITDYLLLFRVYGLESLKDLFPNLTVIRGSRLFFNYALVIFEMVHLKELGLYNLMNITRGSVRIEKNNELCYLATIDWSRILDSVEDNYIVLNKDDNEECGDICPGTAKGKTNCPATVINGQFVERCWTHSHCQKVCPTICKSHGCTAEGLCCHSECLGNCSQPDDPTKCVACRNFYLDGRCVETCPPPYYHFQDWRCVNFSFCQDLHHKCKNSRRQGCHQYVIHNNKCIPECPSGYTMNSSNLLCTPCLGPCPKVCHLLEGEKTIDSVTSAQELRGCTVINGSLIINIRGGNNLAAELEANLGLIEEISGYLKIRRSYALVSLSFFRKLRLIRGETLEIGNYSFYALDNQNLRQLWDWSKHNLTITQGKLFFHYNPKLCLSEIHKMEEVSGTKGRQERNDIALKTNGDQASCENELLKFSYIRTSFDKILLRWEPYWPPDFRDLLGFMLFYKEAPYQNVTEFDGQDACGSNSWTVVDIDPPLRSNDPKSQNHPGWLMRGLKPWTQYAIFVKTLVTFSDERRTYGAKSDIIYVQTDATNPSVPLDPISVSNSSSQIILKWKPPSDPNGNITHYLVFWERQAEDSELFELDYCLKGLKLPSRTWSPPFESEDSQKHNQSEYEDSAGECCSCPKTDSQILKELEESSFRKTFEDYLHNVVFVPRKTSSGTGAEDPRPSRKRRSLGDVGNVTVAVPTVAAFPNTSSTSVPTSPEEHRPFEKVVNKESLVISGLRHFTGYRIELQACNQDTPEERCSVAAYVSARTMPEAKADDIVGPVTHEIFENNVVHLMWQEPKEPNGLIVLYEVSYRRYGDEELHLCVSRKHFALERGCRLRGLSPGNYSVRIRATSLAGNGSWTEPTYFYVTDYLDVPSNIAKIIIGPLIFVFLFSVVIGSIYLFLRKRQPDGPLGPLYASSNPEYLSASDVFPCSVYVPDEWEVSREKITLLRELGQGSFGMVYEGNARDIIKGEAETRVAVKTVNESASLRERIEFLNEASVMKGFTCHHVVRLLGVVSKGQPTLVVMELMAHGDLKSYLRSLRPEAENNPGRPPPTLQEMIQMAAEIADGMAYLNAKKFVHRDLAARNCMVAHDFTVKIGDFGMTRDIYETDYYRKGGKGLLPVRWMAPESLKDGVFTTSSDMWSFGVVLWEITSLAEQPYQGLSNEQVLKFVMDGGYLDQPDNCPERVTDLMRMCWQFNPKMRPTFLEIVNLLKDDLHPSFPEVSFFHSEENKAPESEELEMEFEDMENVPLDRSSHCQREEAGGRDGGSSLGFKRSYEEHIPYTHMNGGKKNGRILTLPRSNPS
T1 sequence (P49674 whole entry): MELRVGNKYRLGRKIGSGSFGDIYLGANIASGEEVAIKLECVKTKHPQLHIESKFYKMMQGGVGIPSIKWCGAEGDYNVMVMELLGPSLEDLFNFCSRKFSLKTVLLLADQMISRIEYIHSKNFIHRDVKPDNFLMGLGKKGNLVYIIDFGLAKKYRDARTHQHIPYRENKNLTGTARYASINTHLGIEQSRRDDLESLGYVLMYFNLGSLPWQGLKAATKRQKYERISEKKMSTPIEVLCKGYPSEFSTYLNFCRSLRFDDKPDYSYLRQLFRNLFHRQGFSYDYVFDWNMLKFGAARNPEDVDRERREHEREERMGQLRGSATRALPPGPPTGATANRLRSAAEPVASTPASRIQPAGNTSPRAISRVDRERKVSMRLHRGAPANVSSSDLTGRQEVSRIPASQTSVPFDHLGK
T5 sequence (P41743 whole entry): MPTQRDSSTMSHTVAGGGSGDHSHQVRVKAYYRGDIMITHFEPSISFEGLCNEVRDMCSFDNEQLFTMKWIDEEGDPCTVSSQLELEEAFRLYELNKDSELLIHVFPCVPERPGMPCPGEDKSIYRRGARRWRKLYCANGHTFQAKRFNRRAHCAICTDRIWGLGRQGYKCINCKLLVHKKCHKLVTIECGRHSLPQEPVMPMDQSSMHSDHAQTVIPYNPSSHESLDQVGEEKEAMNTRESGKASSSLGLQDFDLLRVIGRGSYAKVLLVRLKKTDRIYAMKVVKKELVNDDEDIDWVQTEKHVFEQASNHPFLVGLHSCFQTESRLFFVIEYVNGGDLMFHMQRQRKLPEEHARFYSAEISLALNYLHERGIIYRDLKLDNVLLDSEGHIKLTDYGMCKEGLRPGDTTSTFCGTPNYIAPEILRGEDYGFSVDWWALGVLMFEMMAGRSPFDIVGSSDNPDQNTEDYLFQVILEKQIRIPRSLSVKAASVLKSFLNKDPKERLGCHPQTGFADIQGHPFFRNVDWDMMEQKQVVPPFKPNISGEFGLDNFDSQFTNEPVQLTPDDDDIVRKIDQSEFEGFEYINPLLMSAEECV

- remaining activity at 0.3 µM (SRPK1; [1]): 96.5%
- remaining activity at 0.3 µM (SRPK1; [2]): 93.9%
- remaining activity at 0.3 µM (HIPK4; [1]): 79.6%
- remaining activity at 0.3 µM (HIPK4; [2]): 78.6%
- remaining activity at 0.3 µM (EGFR; [1]): 97.2%
- remaining activity at 0.3 µM (EGFR; [2]): 96%
- remaining activity at 0.3 µM (CK1epsilon; [1]): 96.5%
- remaining activity at 0.3 µM (CK1epsilon; [2]): 94.7%
- remaining activity at 0.3 µM (BRSK1; [1]): 101%
- remaining activity at 0.3 µM (BRSK1; [2]): 95.8%
- remaining activity at 0.3 µM (MKK6; [1]): 116%
- remaining activity at 0.3 µM (MKK6; [2]): 115%
- remaining activity at 0.3 µM (CDK2/cyclin E2; [1]): 102%
- remaining activity at 0.3 µM (CDK2/cyclin E2; [2]): 101%
- remaining activity at 0.3 µM (PAK3; [1]): 99%
- remaining activity at 0.3 µM (PAK3; [2]): 97.9%
- remaining activity at 0.3 µM (CDK7/cyclin H; [1]): 103%
- remaining activity at 0.3 µM (CDK7/cyclin H; [2]): 101%
- remaining activity at 0.3 µM (ALK6/BMPR1B; [1]): 97.9%
- remaining activity at 0.3 µM (ALK6/BMPR1B; [2]): 97.6%
- remaining activity at 0.3 µM (LYN B; [1]): 99.5%
- remaining activity at 0.3 µM (LYN B; [2]): 99.4%
- remaining activity at 0.3 µM (CDK4/cyclin D1; [1]): 106%
- remaining activity at 0.3 µM (CDK4/cyclin D1; [2]): 104%
- remaining activity at 0.3 µM (ERN1/IRE1; [1]): 83%
- remaining activity at 0.3 µM (ERN1/IRE1; [2]): 82.7%
- remaining activity at 0.3 µM (NLK; [1]): 92.3%
- remaining activity at 0.3 µM (NLK; [2]): 85.8%
- remaining activity at 0.3 µM (IR; [1]): 3%
- remaining activity at 0.3 µM (IR; [2]): 2.81%
- remaining activity at 0.3 µM (PKCiota; [1]): 101%
- remaining activity at 0.3 µM (PKCiota; [2]): 99.1%
- remaining activity at 0.3 µM (LATS1; [1]): 103%
- remaining activity at 0.3 µM (LATS1; [2]): 102%
- remaining activity at 0.3 µM (STK39/STLK3; [1]): 61.2%
- remaining activity at 0.3 µM (STK39/STLK3; [2]): 61.1%
- remaining activity at 0.3 µM (AKT1): 105%
- remaining activity at 0.3 µM (MST4; [1]): 101%
- remaining activity at 0.3 µM (MST4; [2]): 92.7%
SMILES: COc1cc(N2CCN(C)CC2)c(C)cc1Nc1ncc(Br)c(Nc2cccnc2N(C)C)n1 [TP-5801]
